Assay results as given in patent US20250313574A1, “SIALIC ACID DERIVATIVES AND METHODS OF USING SAME” (EISAI R&D MANAGEMENT CO., LTD., priority 2022, published 2025).
pEC50: −log10 of the molar value.

Target: Recombinant human CD33 protein (Homo sapiens (Human), UniProt P20138)
Assay: CD33 competitive binding assay for HTS drug screen (fluorescent multivalent sialic acid probe)
Procedure: This is a competitive binding assay that uses recombinant CD33 immobilized to a plate and a fluorescently-labeled multivalent sialic acid analog as a probe. Binding of drug to the site on CD33 to which sialic acid binds is detected by reduced binding of the fluorescent probe. Recombinant human CD33 protein (for example Acro Biosystems cat #CD3-H5257) was added at a concentration of 10 μg/ml in 20 mM acetate buffer (pH5.5) to a black plastic plate (Corning 4510) and allowed to incubate overnight at 4° C. The next day, the wells were washed 3 times with PBS containing 0.02% Tween-20. This was followed by a 30-minute incubation with PBS containing 0.2% Tween-20 and 0.5% BSA to block non-specific binding to the well. This buffer is removed and replaced with 10 μl of the same buffer, which is also used as the assay buffer. The fluorescent multivalent sialic acid probe was prepared as a 4× concentration as follows. A biotinylated sialic acid analog A-375 was mixed with biotin-4-Fluorescein isothiocyanate (biotin-4-FITC) at a 3:1 molar ratio with final concentrations (4× stock) of 60 μM A-375 and 20 μM biotin-4-FITC. After these were mixed, 20 μM of neutravidin was added, which should form complexes consisting of neutravidin, fluorescein and sialic acid with an average complex consisting of 1 neutravidin, 1 FITC and 3 sialic acid analogs. The multimerization of the sialic acid analog is critical to the assay and improves the affinity of the sialic acid analog several orders of magnitude. A test compound, for example A-001, is added at 5 μl to the 10 μl assay buffer already in the well. After a brief incubation, 5 μl of the 4× stock solution of sialic acid complexes was added. The final concentration of the complexes was therefore 5 μM neutravidin, 15 μM A-375 and 5 μM FITC. The plate was incubated at room temperature for 30 mins and then washed with PBS containing 0.2% Tween-20. Binding of the sialic acid complex is very stable, with an off-rate of several days. Bound complex was then detected using a standard plate reader to quantify FITC fluorescence.

Recombinant human CD33 protein, sequence (P20138 18-259): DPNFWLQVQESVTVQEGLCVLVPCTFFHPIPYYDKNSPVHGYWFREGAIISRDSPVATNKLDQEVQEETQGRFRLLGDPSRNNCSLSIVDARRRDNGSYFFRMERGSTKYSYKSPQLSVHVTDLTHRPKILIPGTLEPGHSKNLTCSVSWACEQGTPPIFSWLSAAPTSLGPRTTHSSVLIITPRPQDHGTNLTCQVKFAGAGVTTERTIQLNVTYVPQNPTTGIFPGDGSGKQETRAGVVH

pEC50	SMILES
4.35	Cc1cc(C(=O)NCC(O)C[C@@H]2O[C@@](C/C=C/C3CCN(C(=O)OC(C)(C)C)C3)(C(=O)O)CCC2C)cc(C)c1O (single isomer, unassigned) [A-209]
4.76	Cc1cc(C(=O)NCC(O)C[C@@H]2O[C@@](C/C=C/C3CCN(C(=O)OC(C)(C)C)C3)(C(=O)O)CCC2C)cc2cc[nH]c12 (single isomer, unassigned) [A-212]
4.75	Cc1cc(C(=O)NCC(O)C[C@@H]2O[C@@](CCN3CCOC[C@@]34CCN(C(=O)OC(C)(C)C)C4)(C(=O)O)CCC2C)cc(C)c1O (single isomer, unassigned) [A-213]
5.01	Cc1cc(C(=O)NCC(O)C[C@@H]2O[C@@](CCN3CCOC[C@@]34CCN(C(=O)OC(C)(C)C)C4)(C(=O)O)CCC2C)cc(C)c1O (single isomer, unassigned) [A-214]
6.09	CC(=O)N[C@H]1[C@H]([C@H](O)[C@H](O)CNC(=O)c2cc(C)c(O)c(C)c2)O[C@@](CCN2CCOCC23CCN(C(=O)OC(C)(C)C)CC3)(C(=O)O)C[C@@H]1O [A-007]
6.27	CC(=O)N[C@H]1[C@H]([C@H](O)[C@H](O)CNC(=O)c2cc(C)c(O)c(C)c2)O[C@@](CCN2CCOCC23CN(C(=O)OC(C)(C)C)C3)(C(=O)O)C[C@@H]1O [A-008]
7.20	C=C(C)c1ccc(C(C)(C)NC(=O)N2CC[C@@]3(COCCN3CC[C@]3(C(=O)O)C[C@H](O)[C@@H](NC(C)=O)[C@H]([C@H](O)[C@H](O)CNC(=O)c4cc(C)c(O)c(C)c4)O3)C2)cc1 [A-046]
6.83	CC(=O)N[C@H]1[C@H]([C@H](O)[C@H](O)CNC(=O)c2cc(C)c(O)c(C)c2)O[C@@](CCN2CCOC[C@@]23CCN(C(=O)NC2(c4ccccc4)CC2)C3)(C(=O)O)C[C@@H]1O [A-054]
6.61	CC(=O)N[C@H]1[C@H]([C@H](O)[C@H](O)CNC(=O)c2cc(C)c(O)c(C)c2)O[C@@](CCN2CCOC[C@@]23CCN(C(=O)NC(C)(C)c2ccccc2)C3)(C(=O)O)C[C@@H]1O [A-055]
7.00	CC(=O)N[C@H]1[C@H]([C@H](O)[C@H](O)CNC(=O)c2cc(C)c(O)c(C)c2)O[C@@](CCN2CCOC[C@@]23CCN(C(=O)CC(C)c2ccccc2)C3)(C(=O)O)C[C@@H]1O (stereo partly drawn) [A-068]
6.64	CC(=O)N[C@H]1[C@H]([C@H](O)[C@H](O)CNC(=O)c2cc(C)c(O)c(C)c2)O[C@@](CCN2CCOC[C@@]23CCN(C(=O)CC(C)(C)C)C3)(C(=O)O)C[C@@H]1O [A-072]
6.69	CC(=O)N[C@H]1[C@H]([C@H](O)[C@H](O)CNC(=O)c2cc(C)c(O)c(C)c2)O[C@@](CCN2CCOC[C@@]23CCN(C(=O)CC2CCOCC2)C3)(C(=O)O)C[C@@H]1O [A-073]
6.55	CC(=O)N[C@H]1[C@H]([C@H](O)[C@H](O)CNC(=O)c2cc(C)c(O)c(C)c2)O[C@@](CCN2CCOC[C@@]23CCN(C(=O)C2(C)CCCO2)C3)(C(=O)O)C[C@@H]1O (stereo partly drawn) [A-077]

Further lines, the molecule ahead of its results:

SMILES	pEC50
Cc1cc(C(=O)NCC(O)C[C@@H]2O[C@@](C/C=C/C3CCN(C(=O)OC(C)(C)C)C3)(C(=O)O)CCC2C)cc(C)c1O (single isomer, unassigned) [A-210]	4.67
Cc1cc(C(=O)NCC(O)C[C@@H]2O[C@@](C/C=C/C3CCN(C(=O)OC(C)(C)C)C3)(C(=O)O)CCC2C)cc2cc[nH]c12 (single isomer, unassigned) [A-211]	4.82
Cc1cc(C(=O)NCC(O)C[C@@H]2O[C@@](CCN3CCOC[C@@]34CCN(C(=O)OC(C)(C)C)C4)(C(=O)O)CCC2C)cc(C)c1O (single isomer, unassigned) [A-215]	4.22
CC(=O)N[C@H]1[C@H]([C@H](O)[C@H](O)CNC(=O)c2cc(C)c(O)c(C)c2)O[C@@](CCN2CCC23CCN(C(=O)OC(C)(C)C)C3)(C(=O)O)C[C@@H]1O (stereo partly drawn) [A-018]	6.79
CC(=O)N[C@H]1[C@H]([C@H](O)[C@H](O)CNC(=O)c2cc(C)c(O)c(C)c2)O[C@@](CCN2CCC[C@@]23CCN(C(=O)OC(C)(C)C)C3)(C(=O)O)C[C@@H]1O [A-019]	7.55
CC(=O)N[C@H]1[C@H]([C@H](O)[C@H](O)CNC(=O)c2cc(C)c(O)c(C)c2)O[C@@](CCN2CCC[C@]23CCN(C(=O)OC(C)(C)C)C3)(C(=O)O)C[C@@H]1O [A-020]	6.33
C=C(OC(C)(C)C)N1CC2(CCN2CC[C@]2(C(=O)O)C[C@H](O)[C@@H](NC(C)=O)[C@H]([C@H](O)[C@H](O)CNC(=O)c3cc(C)c(O)c(C)c3)O2)C1 [A-021]	6.05
CC(=O)N[C@H]1[C@H]([C@H](O)[C@H](O)CNC(=O)c2cc(C)c(O)c(C)c2)O[C@@](CCN2CCCCC23CCN(C(=O)OC(C)(C)C)C3)(C(=O)O)C[C@@H]1O (stereo partly drawn) [A-022]	5.53
C=C(OC(C)(C)C)N1CCC2(CC1)CCN2CC[C@]1(C(=O)O)C[C@H](O)[C@@H](NC(C)=O)[C@H]([C@H](O)[C@H](O)CNC(=O)c2cc(C)c(O)c(C)c2)O1 [A-023]	6.75
COC[C@@]1(NCC[C@]2(C(=O)O)C[C@H](O)[C@@H](NC(C)=O)[C@H]([C@H](O)[C@H](O)CNC(=O)c3cc(C)c(O)c(C)c3)O2)CCN(C(=O)OC(C)(C)C)C1 [A-030]	7.31
COC[C@@]1(N(C)CC[C@]2(C(=O)O)C[C@H](O)[C@@H](NC(C)=O)[C@H]([C@H](O)[C@H](O)CNC(=O)c3cc(C)c(O)c(C)c3)O2)CCN(C(=O)OC(C)(C)C)C1 [A-031]	7.15
CC(=O)N[C@H]1[C@H]([C@H](O)[C@H](O)CNC(=O)c2cc(C)c(O)c(C)c2)O[C@@](CCN2CCOC[C@@]23CCN(c2cc(C)ccn2)C3)(C(=O)O)C[C@@H]1O [A-038]	7.28
CC(=O)N[C@H]1[C@H]([C@H](O)[C@H](O)CNC(=O)c2cc(C)c(O)c(C)c2)O[C@@](CCN2CCOC[C@@]23CCN(c2cc(C(F)(F)F)ccn2)C3)(C(=O)O)C[C@@H]1O [A-039]	7.02
CC(=O)N[C@H]1[C@H]([C@H](O)[C@H](O)CNC(=O)c2cc(C)c(O)c(C)c2)O[C@@](CCN2CCOC[C@@]23CCN(c2cc(N(C)C)ccn2)C3)(C(=O)O)C[C@@H]1O [A-041]	6.24
CC(=O)N[C@H]1[C@H]([C@H](O)[C@H](O)CNC(=O)c2cc(C)c(O)c(C)c2)O[C@@](CCN2CCOC[C@@]23CCN(C(=O)NC(C)(C)C(C)C)C3)(C(=O)O)C[C@@H]1O [A-050]	7.70
CC(=O)N[C@H]1[C@H]([C@H](O)[C@H](O)CNC(=O)c2cc(C)c(O)c(C)c2)O[C@@](CCN2CCOC[C@@]23CCN(C(=O)N[C@H](C)c2ccc(Br)cc2)C3)(C(=O)O)C[C@@H]1O [A-056]	6.82
CC(=O)N[C@H]1[C@H]([C@H](O)[C@H](O)CNC(=O)c2cc(C)c(O)c(C)c2)O[C@@](CCN2CCOC[C@@]23CCN(C(=O)C2CCCCC2)C3)(C(=O)O)C[C@@H]1O [A-067]	7.20
CC(=O)N[C@H]1[C@H]([C@H](O)[C@H](O)CNC(=O)c2cc(C)c(O)c(C)c2)O[C@@](CCN2CCOC[C@@]23CCN(C(=O)C2CCC(F)(F)C2)C3)(C(=O)O)C[C@@H]1O (stereo partly drawn) [A-074]	6.58
CC(=O)N[C@H]1[C@H]([C@H](O)[C@H](O)CNC(=O)c2cc(C)c(O)c(C)c2)O[C@@](CCN2CCOC[C@@]23CCN(C(=O)C2CCC(F)(F)CC2)C3)(C(=O)O)C[C@@H]1O [A-075]	7.00
CC(=O)N[C@H]1[C@H]([C@H](O)[C@H](O)CNC(=O)c2cc(C)c(O)c(C)c2)O[C@@](CCN2CCOC[C@@]23CCN(C(=O)C(C)C2CCCCC2)C3)(C(=O)O)C[C@@H]1O (stereo partly drawn) [A-076]	6.65
